Measurements taken from ChEMBL document CHEMBL1201862, “PubChem BioAssay data set” (2004).
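Grown in 96-well plates, cells were treated for 48 hours with each compound at five concentrations. Insufficient inhibition: endpoint recorded as highest concentration tested. Abbreviation: GI50, concentration required for 50% inhibition of growth.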 The source made the active and inactive calls. No stated cut-off is given here; in the data, active = GI50 up to about 1.1 µM and inactive = higher.

Tests used:
Assay in all cases: growth of human tumour cells (NCI), 48 h
786-0 = system: 786-0
A549 = system: A549
ACHN = system: ACHN
BT-549 = system: BT-549
CAKI-1 = system: CAKI-1
CCRF-CEM = system: CCRF-CEM
COLO 205 = system: COLO 205
DU-145 = system: DU-145
EKVX = system: EKVX
HCC 2998 = system: HCC 2998
HCT-116 = system: HCT-116
HCT-15 = system: HCT-15
HL-60 = system: HL-60
HOP-62 = system: HOP-62
HT-29 = system: HT-29
K562 = system: K562
KM12 = system: KM12
M14 = system: M14
MCF7 = system: MCF7
MDA-MB-231 = system: MDA-MB-231
MDA-MB-435 = system: MDA-MB-435
MDA-N = system: MDA-N
MOLT-4 = system: MOLT-4
Malme-3M = system: Malme-3M
NCI-H23 = system: NCI-H23
NCI-H460 = system: NCI-H460
NCI/ADR-RES = system: NCI/ADR-RES
OVCAR-3 = system: OVCAR-3
OVCAR-4 = system: OVCAR-4
OVCAR-5 = system: OVCAR-5
OVCAR-8 = system: OVCAR-8
PC-3 = system: PC-3
RPMI-8226 = system: RPMI-8226
SF-295 = system: SF-295
SK-MEL-28 = system: SK-MEL-28
SK-MEL-2 = system: SK-MEL-2
SK-MEL-5 = system: SK-MEL-5
SN12C = system: SN12C
SNB-19 = system: SNB-19
SR = system: SR
TK-10 = system: TK-10
U-251 = system: U-251
UO-31 = system: UO-31
A498 = system: A498
IGROV-1 = system: IGROV-1
LOX IMVI = system: LOX IMVI
NCI-H226 = system: NCI-H226
NCI-H522 = system: NCI-H522
RXF 393 = system: RXF 393
SF-268 = system: SF-268
SF-539 = system: SF-539
SK-OV-3 = system: SK-OV-3
SNB-75 = system: SNB-75
SW-620 = system: SW-620
T47D = system: T47D
UACC-257 = system: UACC-257

Measured: GI50

O=C(c1cccc2ccccc12)C1S(=O)(=O)OCCOS1(=O)=O
> 100 µM: HCT-15
active: SF-295 0.0151 µM
inactive: 786-0 > 100 µM | A549 > 100 µM | ACHN > 100 µM | BT-549 > 100 µM | CAKI-1 > 100 µM | CCRF-CEM > 100 µM | COLO 205 > 100 µM | DU-145 > 100 µM | EKVX > 100 µM | HCC 2998 > 100 µM | HCT-116 > 100 µM | HL-60 > 100 µM | HOP-62 > 100 µM | HT-29 > 100 µM | K562 > 100 µM | KM12 > 100 µM | M14 > 100 µM | MCF7 > 100 µM | MDA-MB-231 > 100 µM | MDA-MB-435 > 10 µM | MDA-N > 100 µM | MOLT-4 > 100 µM | Malme-3M > 100 µM | NCI-H23 > 100 µM | NCI-H460 > 100 µM | NCI/ADR-RES > 100 µM | OVCAR-3 > 100 µM | OVCAR-4 > 100 µM | OVCAR-5 > 100 µM | OVCAR-8 > 100 µM | PC-3 > 100 µM | RPMI-8226 > 100 µM | SK-MEL-28 > 100 µM | SK-MEL-2 > 100 µM | SK-MEL-5 > 100 µM | SN12C > 100 µM | SNB-19 > 100 µM | SR > 100 µM | TK-10 > 100 µM | U-251 > 100 µM | UO-31 > 100 µM

CC(C)=CC(O)C(C(O)CCC1(C)OCCO1)S(=O)(=O)c1ccccc1 (stereo not drawn)
> 100 µM: HCT-15
inactive: 786-0 > 100 µM | A498 > 100 µM | A549 > 100 µM | ACHN > 100 µM | BT-549 > 100 µM | CAKI-1 > 100 µM | CCRF-CEM > 100 µM | COLO 205 > 100 µM | EKVX > 100 µM | HCC 2998 > 100 µM | HCT-116 > 100 µM | HOP-62 > 100 µM | IGROV-1 > 100 µM | KM12 > 100 µM | LOX IMVI > 100 µM | M14 > 100 µM | MCF7 > 100 µM | MDA-MB-231 > 100 µM | MDA-MB-435 > 100 µM | MDA-N > 100 µM | Malme-3M > 100 µM | NCI-H226 > 100 µM | NCI-H23 > 100 µM | NCI-H460 > 100 µM | NCI-H522 > 100 µM | NCI/ADR-RES > 100 µM | OVCAR-3 > 100 µM | OVCAR-4 > 100 µM | OVCAR-5 > 100 µM | OVCAR-8 > 100 µM | PC-3 > 100 µM | RPMI-8226 > 100 µM | RXF 393 > 100 µM | SF-268 > 100 µM | SF-295 > 100 µM | SF-539 > 100 µM | SK-MEL-28 > 100 µM | SK-MEL-2 > 100 µM | SK-OV-3 > 100 µM | SN12C > 100 µM | SNB-19 > 100 µM | SNB-75 > 100 µM | SW-620 > 100 µM | T47D > 100 µM | TK-10 > 100 µM | U-251 > 100 µM | UACC-257 > 100 µM | UO-31 > 100 µM

O=P(O)(O)OC1C(OP(=O)(O)O)C(OP(=O)(O)O)C(OP(=O)(O)O)C(OP(=O)(O)O)C1OP(=O)(O)O (stereo not drawn) [PHYTATE]
inactive: EKVX > 500 µM
